From patent US7456167B2, “Cyclopropyl fused indolobenzazepine HCV NS5B inhibitors” (Bristol-Myers Squibb Company, priority 2006, dated 2008)
pEC50, pIC50: −log10 of the molar value. Read-outs that look alike come from different tables or passages of the source.

What was measured:
[1] = molecular target: T1, HCV NS5B RdRp genotype 1b (Hepatitis C virus genotype 1b, UniProt Q9WMX2); assay: Modified HCV NS5B RdRp enzyme assay (preincubation protocol); assay type: biochemical
T1 construct: The protein was expressed with an 18 amino acid C-terminal truncation to enhance the solubility; made in house; host or cells: E. coli BL21(DE3)
T1 sequence (Q9WMX2 2420-2992): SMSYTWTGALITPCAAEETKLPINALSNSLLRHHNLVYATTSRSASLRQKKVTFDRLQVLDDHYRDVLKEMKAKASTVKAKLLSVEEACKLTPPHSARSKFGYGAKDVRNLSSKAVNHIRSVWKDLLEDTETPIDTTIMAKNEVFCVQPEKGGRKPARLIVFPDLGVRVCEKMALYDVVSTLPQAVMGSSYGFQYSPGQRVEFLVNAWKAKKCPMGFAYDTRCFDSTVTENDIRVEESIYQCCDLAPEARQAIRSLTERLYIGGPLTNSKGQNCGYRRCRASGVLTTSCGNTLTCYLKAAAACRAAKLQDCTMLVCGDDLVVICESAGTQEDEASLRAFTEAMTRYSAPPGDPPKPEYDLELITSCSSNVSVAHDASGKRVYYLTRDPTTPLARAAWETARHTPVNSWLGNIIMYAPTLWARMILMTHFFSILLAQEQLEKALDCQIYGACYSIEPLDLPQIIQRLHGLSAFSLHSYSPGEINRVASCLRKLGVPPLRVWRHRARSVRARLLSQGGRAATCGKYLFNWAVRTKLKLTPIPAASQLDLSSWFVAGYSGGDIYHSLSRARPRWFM
Experimental: HCV NS5B RdRp cloning, expression, and purification. The cDNA encoding the NS5B protein of HCV, genotype 1b, was cloned into the pET21a expression vector. The protein was expressed with an 18 amino acid C-terminal truncation to enhance the solubility. The E. coli competent cell line BL21(DE3) was used for expression of the protein. Cultures were grown at 37° C. for ˜4 hours until the cultures reached an optical density of 2.0 at 600 nm. The cultures were cooled to 20° C. and induced with 1 mM IPTG. Fresh ampicillin was added to a final concentration of 50 μg/ml and the cells were grown overnight at 20° C.
Cell pellets (3 L) were lysed for purification to yield 15-24 mgs of purified NS5B. The lysis buffer consisted of 20 mM Tris-HCl, pH 7.4, 500 mM NaCl, 0.5% triton X-100, 1 mM DTT, 1 mM EDTA, 20% glycerol, 0.5 mg/ml lysozyme, 10 mM MgCl2, 15 ug/ml deoxyribonuclease I, and Complete TM protease inhibitor tablets (Roche). After addition of the lysis buffer, frozen cell pellets were resuspended using a tissue homogenizer. To reduce the viscosity of the sample, aliquots of the lysate were sonicated on ice using a microtip attached to a Branson sonicator. The sonicated lysate was centrifuged at 100,000×g for 1 hr at 4° C. and filtered through a 0.2 μm filter unit (Corning).
The protein was purified using three sequential chromatography steps: Heparin sepharose CL-6B, polyU sepharose 4B, and Hitrap SP sepharose (Pharmacia). The chromatography buffers were identical to the lysis buffer but contained no lysozyme, deoxyribonuclease I, MgCl2 or protease inhibitor and the NaCl concentration of the buffer was adjusted according to the requirements for charging the protein onto the column. Each column was eluted with a NaCl gradient which varied in length from 5-50 column volumes depending on the column type. After the final chromatography step, the resulting purity of the enzyme is >90% based on SDS-PAGE analysis. The enzyme was aliquoted and stored at −80° C.
Standard HCV NS5B RdRp enzyme assay. HCV RdRp genotype 1b assays were run in a final volume of 60 μl in 96 well plates (Costar 3912). The assay buffer is composed of 20 mM Hepes, pH 7.5, 2.5 mM KCl, 2.5 mM MgCl2, 1 mM DTT, 1.6 U RNAse inhibitor (Promega N2515), 0.1 mg/ml BSA (Promega R3961), and 2% glycerol. All compounds were serially diluted (3-fold) in DMSO and diluted further in water such that the final concentration of DMSO in the assay was 2%. HCV RdRp genotype 1b enzyme was used at a final concentration of 28 nM. A polyA template was used at 6 nM, and a biotinylated oligo-dT12 primer was used at 180 nM final concentration. Template was obtained commercially (Amersham 27-4110). Biotinylated primer was prepared by Sigma Genosys. 3H-UTP was used at 0.6 μCi (0.29 μM total UTP). Reactions were initiated by the addition of enzyme, incubated at 30° C. for 60 min, and stopped by adding 25 μl of 50 mM EDTA containing SPA beads (4 μg/μl, Amersham RPNQ 0007). Plates were read on a Packard Top Count NXT after >1 hr incubation at room temperature.
Modified HCV NS5B RdRp enzyme assay. A modified enzyme assay was performed essentially as described for the standard enzyme assay except for the following: The biotinylated oligo dT12 primer was precaptured on streptavidin-coated SPA beads by mixing primer and beads in assay buffer and incubating at room temperature for one hour. Unbound primer was removed after centrifugation. The primer-bound beads were resuspended in 20 mM Hepes buffer, pH 7.5 and used in the assay at final concentrations of 20 nM primer and 0.67 μg/μl beads. Order of addition in the assay: enzyme (14 nM) was added to diluted compound followed by the addition of a mixture of template (0.2 nM), 3H-UTP (0.6 μCi, 0.29 μM), and primer-bound beads, to initiate the reaction; concentrations given are final. Reactions were allowed to proceed for 4 hours at 30° C.
IC50 values for compounds were determined using seven different [I]. […]

[2] = system: HCV replicon cells; assay: HCV replicon FRET assay; assay type: cell-based; conditions: Hepatitis C virus
Text: FRET Assay Preparation. To perform the HCV FRET screening assay, 96-well cell culture plates were used. The FRET peptide (Anaspec, Inc.) (Taliani et al., Anal. Biochem. 1996, 240, 60-67) contains a fluorescence donor, EDANS, near one end of the peptide and an acceptor, DABCYL, near the other end. The fluorescence of the peptide is quenched by […] resonance energy transfer (RET) between the donor and the acceptor, but as the NS3 protease cleaves the peptide the products are released from RET quenching and the fluorescence of the donor becomes apparent. The assay reagent was made as follows: 5× cell Luciferase cell culture lysis reagent from Promega (#E153A) diluted to 1× with dH2O, NaCl added to 150 mM final, the FRET peptide diluted to 20 uM final from a 2 mM stock.
To prepare plates, HCV replicon cells, with or without a Renilla luciferase reporter gene, were trypsinized and placed into each well of a 96-well plate with titrated test compounds added in columns 3 through 12; columns 1 and 2 contained a control compound (HCV protease inhibitor), and the bottom row contained cells without compound. The plates were then placed in a CO2 incubator at 37° C.
Assays. Subsequent to addition of the test compounds described above (FRET Assay Preparation), at various times the plate was removed and Alamar blue solution (Trek Diagnostics, #00-100) was added per well as a measure of cellular toxicity. After reading in a Cytoflour 4000 instrument (PE Biosystems), plates were rinsed with PBS and then used for FRET assay by the addition of 30 ul of the FRET peptide assay reagent described above (FRET Assay Preparation) per well. The plate was then placed into the Cytoflour 4000 instrument which had been set to 340 excite/490 emission, automatic mode for 20 cycles and the plate read in a kinetic mode. Typically, the signal to noise using an endpoint analysis after the reads was at least three-fold. Alternatively, after Alamar blue reading, plates were rinsed with PBS, 50 ul of DMEM (high glucose) without phenol red was added and plates were then used for luciferase assay using the Promega Dual-Glo Luciferase Assay System.
Compound analysis was determined by quantification of the relative HCV replicon inhibition and the relative cytotoxicity values. To calculate cytoxicity values, the average Alamar Blue fluorescence signals from the control wells were set as 100% non-toxic. The individual signals in each of the compound test wells were then divided by the average control signal and multiplied by 100% to determine […]. To calculate the HCV replicon inhibition values, an average background value was obtained from the two wells containing the highest amount of HCV protease inhibitor at the end of the assay period. These numbers were similar to those obtained from naïve Huh-7 cells.
The background numbers were then subtracted from the average signal obtained from the control wells and this number was used as 100% activity. The individual signals in each of the compound test wells were then divided by the averaged control values after background subtraction and multiplied by 100% to determine percent activity. EC50 values for a protease inhibitor titration were calculated as the concentration which caused a 50% reduction in FRET or luciferase activity. The two numbers generated for the compound plate, percent cytoxicity and percent activity were used to determine compounds of interest for further analysis.

[3] = HCV NS5B RdRp genotype 1b, preincubation protocol, read-out: IC50
[4] = HCV replicon cells, FRET assay, read-out: EC50

Row | SMILES | pIC50 [1, 3] | pEC50 [2, 4] | pIC50 [1] | pEC50 [2]
1 | COC[C@@H]1CN(S(=O)(=O)C23CC2c2cc(OC)ccc2-c2c(C4CCCCC4)c4ccc(C(=O)NS(=O)(=O)C(C)C)cc4n2C3)CCO1 (stereo partly shown) | 6.00 to 7.70 | 6.00 to 7.70 | – | –
2 | CCS(=O)(=O)NC(=O)c1ccc2c(C3CCCCC3)c3n(c2c1)CC1(S(=O)(=O)N2C[C@@H](C)N(C)[C@@H](C)C2)CC1c1cc(OC)ccc1-3 (stereo partly shown) | 6.00 to 7.70 | 6.00 to 7.70 | – | –
3 | COc1ccc2c(c1)C1CC1(S(=O)(=O)N1C[C@@H](C)N(C)[C@@H](C)C1)Cn1c-2c(C2CCCCC2)c2ccc(C(=O)NS(=O)(=O)N3CCC3)cc21 (stereo partly shown) | 6.00 to 7.70 | 6.00 to 7.70 | – | –
4 | COc1ccc2c(c1)C1CC1(S(=O)(=O)N1C3CC1CN(C)C3)Cn1c-2c(C2CCCCC2)c2ccc(C(=O)NS(=O)(=O)C3CC3)cc21 (stereo not shown) | 6.00 to 7.70 | 6.00 to 7.70 | – | –
5 | COc1ccc2c(c1)C1CC1(S(=O)(=O)N1C[C@@H](C)N(C)[C@@H](C)C1)Cn1c-2c(C2CCCCC2)c2ccc(C(=O)NS(=O)(=O)C(C)C)cc21 (stereo partly shown) | 6.00 to 7.70 | 6.00 to 7.70 | – | –
6 | COc1ccc2c(c1)C1CC1(S(=O)(=O)N(C)C)Cn1c-2c(C2CCCCC2)c2ccc(C(=O)NS(=O)(=O)N(C)C)cc21 (stereo not shown) | 6.00 to 7.70 | 6.00 to 7.70 | – | –
7 | COc1ccc2c(c1)C=C(S(=O)(=O)N1CCN(C)CC1)Cn1c-2c(C2CCCCC2)c2ccc(C(=O)NS(=O)(=O)N(C)C)cc21 | 6.00 to 7.70 | 6.00 to 7.70 | – | –
8 | CCS(=O)(=O)C12CC1c1ccccc1-c1c(C3CCCCC3)c3ccc(C(=O)NS(=O)(=O)N(C)C)cc3n1C2 (stereo not shown) | 6.00 to 7.70 | 6.00 to 7.70 | – | –
9 | COc1ccc2c(c1)C1CC1(S(=O)(=O)N1C[C@@H](C)N(C)[C@@H](C)C1)Cn1c-2c(C2CCCCC2)c2ccc(C(=O)O)cc21 (stereo partly shown) | 6.00 to 7.70 | 6.00 to 7.70 | – | –
10 | COc1ccc2c(c1)C1CC1(S(=O)(=O)N(C)CCN(C)C)Cn1c-2c(C2CCCCC2)c2ccc(C(=O)O)cc21 (stereo not shown) | 6.00 to 7.70 | 6.00 to 7.70 | – | –
11 | COc1ccc2c(c1)C1CC1(S(=O)(=O)N1C3CCC1CC3)Cn1c-2c(C2CCCCC2)c2ccc(C(=O)NS(=O)(=O)C(C)C)cc21 (stereo not shown) | – | – | 6.00 to 7.70 | 6.00 to 7.70
12 | CCN1CC2CC1CN2S(=O)(=O)C12CC1c1cc(OC)ccc1-c1c(C3CCCCC3)c3ccc(C(=O)NS(=O)(=O)N4CCOCC4)cc3n1C2 (stereo not shown) | 6.00 to 7.70 | 6.00 to 7.70 | – | –
13 | COC[C@@H]1CN(S(=O)(=O)C23CC2c2cc(OC)ccc2-c2c(C4CCCCC4)c4ccc(C(=O)NS(=O)(=O)N5CCOCC5)cc4n2C3)CCO1 (stereo partly shown) | 6.00 to 7.70 | 6.00 to 7.70 | – | –
14 | COc1ccc2c(c1)C1CC1(S(=O)(=O)N1CCN(S(C)(=O)=O)CC1)Cn1c-2c(C2CCCCC2)c2ccc(C(=O)NS(=O)(=O)N(C)C)cc21 (stereo not shown) | 6.00 to 7.70 | 6.00 to 7.70 | – | –
